Test results taken from patent US10648917B2, “Luminescent compositions and applications thereof” (THE PENN STATE RESEARCH FOUNDATION, priority 2015, dated 2020).

Assay: Time-resolved fluorescence lifetime (TCSPC)
Assay type: physicochemical
Conditions: one-exponential decay, pulsed excitation at 352 nm, maximum emission wavelength
Procedure: Fluorescence lifetimes were determined by using the Time-Correlation Single Photon Counting (TCSPC) accessory to the FluroMax-4 (Horiba, NJ). NanoLED pulse light sources at wavelengths of 352 nm and 390 nm were used for excitation. For each decay curve, 10,000 photons were collected. Fluorescence lifetime decays were fitted with an exponential series according to equation 1 below:
[formula] where F(t) is the lifetime decay function with respect to time t, Ti is the lifetime value of the emitting species, A is the background offset, and Bi is the pre-exponential function of the emitting species. The method of least squares was used to quantify χ^2 based on the decay data and the fitting function, where χ^2 values smaller than 1.2 indicates a good fit; and values above 1.2 indicate need for multiple exponential fitting in equation 1. If the lifetime decay is dominated by one emitting species, the equation can be simplified to include only the first two terms. One exponential fitting is good for TPA based fluorophores. However, for DPR based fluorophores, only three exponential fitting gives a χ^2 smaller than 1.2. E. Computational Modeling
Absorbance Spectra were recorded on Tecan Infinite M200 Pro UV-vis spectroscopy, and fluorescence spectra were recorded on Horiba FluoroMax-4 fluorospectroscopy at concentrations below 0.1 O.D. unless otherwise indicated. Quantum Yields were measured on the Quantum φ Integrating Sphere accessory to the FluoroMax-4, while lifetime measurements were determined through the Time-Correlation Single Photon Counting (TCSPC) accessory to the FluroMax-4. TCSPC was utilized in conjunction with NanoLED pulsed diode light source with peak excitation wavelength at 352 nm and at 10,000 counts peak preset. Emission was collected at the fluorescence λmax, unless otherwise indicated. For all pH-dependence experiments, sample pH was adjusted with sulfuric acid or sodium hydroxide. For all chloride-dependent quenching experiments, magnesium chloride hexahydrate (Sigma Aldrich) was used.
Fluorescence lifetime decays were fitted with an exponential series according to equation 5 below:
[formula] Where F(t) is the lifetime decay function with respect to time t, Ti is the lifetime value of the emitting species, A is the background offset, and Bi is the pre-exponential function of the emitting species. If the lifetime decay is dominated by one emitting species, the equation can be simplified to include only the first two terms. Bi measures the relative amplitude of the specified fluorophore, where the percent contribution of the fluorophore to the lifetime decay, f, is derived from equation 6:
[formula] The method of least squares was used to quantify χ^2 based on the decay data and the fitting function, where χ^2 values under 1.2 indicates a good fit, and values above 1.2 indicate need for additional terms in equation 5. Typically, an additional exponential term was necessary to improve the χ^2 value and account for the presence of a negligible 6 ns species, deemed to stem from by-products of CFD synthesis, impurities, or CFD dimers. Since the contribution from this species was minor, often less than 5%, it was not included in lifetime analysis.

## CCN(CC)c1ccc2c(-c3ccccc3C(=O)O)c3ccc(=[N+](CC)CC)cc-3oc2c1.[Cl-] [Rhodamine B, reference compound]
  fluorescence lifetime τ: 1.75 ns
